# Tested on: rabbit skeletal myofibrils (approximately 90% fast fibers)
# Assay: Activation of fast skeletal myofibrils (PUMA coupled-enzyme ATPase assay)
# Type: biochemical
# Settings: concentration at which the compound increased the enzymatic activity by 40%; calcium level pCa25
# Method: Preparation of fast skeletal myofibrils: Rabbit skeletal myofibrils were prepared based upon the method of Herrmann et al. (Biochem. 32(28):7255-7263(1993). Myofibrils were prepared from rabbit psoas muscle purchased from Pel-Freez Biologicals (Arkansas) within 2 days of ordering, stored on ice. Minced muscle was homogenized in 10 volumes of ice-cold “standard” buffer (50 mM Tris, pH 7.4, 0.1 M KOAc, 5 mM KCl, 2 mM dithiothreitol (DTT), 0.2 mM phenylmethylsulfonyl fluoride (PMSF), 10 μM leupeptin, 5 μM pepstatin, and 0.5 mM sodium azide) containing 5 mM ethylenediaminetetraacetic acid (EDTA) and 0.5% Triton X-100 using an Omni-Macro homogenizer. Myofibrils were recovered by low speed centrifugation (3000 rpm for 10 minutes) and washed 2 times in the Triton X-100 containing buffer to ensure removal of cellular membrane. Following the Triton washes, myofibrils were washed 3 times in “standard” buffer containing 2 mM magnesium acetate. A final wash in assay buffer (12 mM piperazine-1,4-bis(2-ethanesulfonic acid) (PIPES), pH 6.8, 60 mM KCl, 1 mM DTT) was performed and brought to 10% sucrose for flash freezing in liquid nitrogen and storage at −80° C.
# Activation of Fast Skeletal Myofibrils: Fast fiber activators were identified by Measuring the enzymatic activity of muscle myofibril preparations using the proprietary PUMA (trademark) (see, e.g., U.S. Pat. Nos. 6,410,254, 6,743,599, 7,202,051, and 7,378,254) assay system. Myofibril preparations consisted of rabbit skeletal muscle (approximately 90% fast fibers) that had been mechanically homogenized and washed with a detergent (Triton X-100) to remove cellular membranes. This preparation retained all of the sarcomeric components in a native conformation and the enzymatic activity was still regulated by calcium. Compounds were tested using a myofibril suspension and a level of calcium sufficient to increase enzymatic activity of the myofibrils to 25% of their maximal rate (termed pCa25). Enzymatic activity was tracked via a pyruvate kinase and lactate dehydrogenase-coupled enzyme system. This assay regenerates myosin-produced ADP into ATP by oxidizing NADH, producing an absorbance change at 340 nm. The buffering system was 12 mM PIPES, 2 mM MgCl2, 1 mM DTT at pH 6.8 (PM12 buffer).
row,Compound,AC1.4 [µM]
1,"C[C@@H](O)CC1(C)C(=O)NC2(COC2)c2ccc(Cl)cc21 (mixture of isomers) [167a, rac-(4R)-6-chloro-4-[(2R)-2-hydroxypropyl]-4-methyl-2H-spiro[isoquinoline-1,3′-oxetan]-3(4H)-one]",3.293
2,"C[C@H](O)CC1(C)C(=O)NC2(COC2)c2ccc(Cl)cc21 (mixture of isomers) [167b, rac-(4R)-6-chloro-4-[(2S)-2-hydroxypropyl]-4-methyl-2H-spiro[isoquinoline-1,3′-oxetan]-3(4H)-one]",0.869
3,Cc1ccc2c(n1)C(C)(CC(F)F)C(=O)NC21COC1 (stereo not drawn) [92a],1.318
4,Cc1ccc2c(n1)C(C)(CC(F)F)C(=O)NC21COC1 (stereo not drawn) [92b],0.400
5,CC1(C)NC(=O)C(C)(Cn2cccn2)c2nc(C#N)ccc21 (stereo not drawn) [134a],0.626
6,CC1(C)NC(=O)C(C)(Cn2cccn2)c2nc(C#N)ccc21 (stereo not drawn) [134b],4.986
7,"CCC1(CC)C(=O)NC(C)(C)c2cc(Cl)c(C#N)cc21 [compound 34, 7-chloro-4,4-diethyl-1,1-dimethyl-3-oxo-1,2,3,4-tetrahydroisoquinoline-6-carbonitrile]",0.229
8,CCC1(CC)C(=O)NC2(COC2)c2ccc(Cl)cc21 [compound 43],0.051
9,CC1(C)NC(=O)C2(CCOCC2)c2cc(Br)ccc21 [compound 44],5.982
10,CCC1(CC)C(=O)NC(C)(C)c2ccc(C)cc21 [compound 46],0.106
11,CCC1(CC)C(=O)NC(C)(C)c2ccc(Cl)cc21 [compound 48],<0.077
12,CCC1(CC)C(=O)NC(C)(C)c2c(OC)cc(OC)cc21 [compound 50],0.763
13,CC1(C)NC(=O)C(C)(C)c2cc(Br)ccc21 [compound 51],0.093
14,CCC1C(=O)NC(C)(C)c2ccc(Br)cc21 (stereo not drawn) [compound 53],0.711
15,CCC1(CCCO)C(=O)NC(C)(C)c2ccc(Br)cc21 (stereo not drawn) [compound 54],0.596
16,CC1(C)NC(=O)C(C)(C)c2cc(C#N)cnc21 [compound 58],5.040
17,CCC1(CC)C(=O)NC(C)(C(F)F)c2ccc(C#N)cc21 (stereo not drawn) [compound 59],0.381
18,C=CCC1(C)C(=O)NC(C)(C)c2ccc(C#N)nc21 (stereo not drawn) [compound 60],0.252
19,CC1(C)NC(=O)C2(CCOCC2)c2cc(C#N)ccc21 [compound 62],>39.200
20,CCC1(CC)C(=O)NC(C)(C)c2c(C#N)cccc21 [compound 63],3.707
21,CCN(CC)C1C(=O)NC(C)(C)c2ccc(Br)cc21.Cl (stereo not drawn) [compound 65],1.052
22,CN(c1ccccc1)C1C(=O)NC(C)(C)c2ccc(Br)cc21.Cl (stereo not drawn) [compound 66],2.502
23,CCC1(CC)C(=O)NC2(COC2)c2ncc(Cl)nc21 [compound 68],0.830

row,Compound,AC1.4 [µM]
1,CCC1(CC)C(=O)NC(C)(C)c2ncc(Cl)nc21 [compound 69],0.485
2,CC1(C)NC(=O)C(C)(Cn2cccn2)c2nc(Cl)ccc21 (stereo not drawn) [compound 70],0.522
3,CCC1(C)C(=O)NC(C)(C)c2ccc(Cl)nc21 (stereo not drawn) [compound 71],0.367
4,CC1(Cn2cccn2)C(=O)NC2(COC2)c2ccc(Cl)cc21 (stereo not drawn) [compound 75],1.174
5,C=CCC1(C)C(=O)NC(C)(C)c2ccc(Cl)nc21 (stereo not drawn) [compound 76],0.223
6,C=CCC1(C)NC(=O)C(CC)(CC)c2nc(Cl)ccc21 (stereo not drawn) [compound 77],7.898
7,CCC1(Cc2ccccc2Cl)C(=O)NC(C)(C)c2ccc(Br)cc21 (stereo not drawn) [compound 79],<0.077
8,CCC1(Cc2cccc(Cl)c2)C(=O)NC(C)(C)c2ccc(Br)cc21 (stereo not drawn) [compound 80],0.112
9,CCC1(CCF)C(=O)NC(C)(C)c2ccc(Br)cc21 (stereo not drawn) [compound 81],0.098
10,CCC1(Cc2ccc(Cl)cc2)C(=O)NC(C)(C)c2ccc(Br)cc21 (stereo not drawn) [compound 82],0.084
11,CCC1(CC(F)F)C(=O)NC(C)(C)c2ccc(Br)cc21 (stereo not drawn) [compound 83],<0.077
12,CCC1(CC)C(=O)NC(C)(C)c2ccc(Cl)nc21 [compound 84],0.401
13,CCC1(CC(F)F)C(=O)NC2(COC2)c2ccc(C(F)F)nc21 (stereo not drawn) [compound 88],0.203
14,CC1(C)C(=O)NC2(COC2)c2ccc(Cl)nc21 [compound 90],2.555
15,CCC1(CC(=O)O)C(=O)NC(C)(C)c2ccc(Br)cc21 (stereo not drawn) [compound 91],20.240
16,C=Cc1cnc2c(n1)C(CC)(CC)C(=O)NC21COC1 [compound 94],8.994
17,Cc1ccc2c(n1)C(C)(CC(F)F)C(=O)NC21COC1 (stereo not drawn) [compound 95],0.720
18,CCC1(CCOC)C(=O)NC2(COC2)c2ccc(C)nc21 (stereo not drawn) [compound 96],5.393
19,CCC1(CC)C(=O)NC(C)(C)c2cc(C)c(C#N)cc21 [compound 97],0.332
20,CCC1(CC)C(=O)NC(C)(C)c2cc(C3CC3)c(C#N)cc21 [compound 98],2.085
21,CCC1(CCO)C(=O)NC2(COC2)c2ccc(C)nc21 (stereo not drawn) [compound 102],8.474
22,CCC1(CCO)C(=O)NC2(COC2)c2ccc(OC(F)F)nc21 (stereo not drawn) [compound 105],4.313
23,CC1(C)NC(=O)C(C)(Cn2cccn2)c2nc(C#N)ccc21 (stereo not drawn) [compound 107],1.080

row,Compound,AC1.4 [µM]
1,CC1(C)NC(=O)C(C)(Cc2cn[nH]c2)c2nc(C#N)ccc21 (stereo not drawn) [compound 110],3.478
2,C#CCC1(C)C(=O)NC(C)(C)c2ccc(C#N)nc21 (stereo not drawn) [compound 111],0.321
3,CCC1(CCOC)C(=O)NC2(COC2)c2ccc(C#N)nc21 (stereo not drawn) [compound 112],1.437
4,CCC1(CCO)C(=O)NC(C)(C)c2ccc(Br)cc21 (stereo not drawn) [compound 115],0.474
5,CCC1(CC)C(=O)NC(C)(C)c2cc(Br)c(C#N)cc21 [compound 116],0.274
6,"CC(C)(O)CC1(C)C(=O)NC2(COC2)c2ccc(Cl)cc21 (stereo not drawn) [compound 137, 6-chloro-4-(2-hydroxy-2-methylpropyl)-4-methyl-2H-spiro[isoquinoline-1,3′-oxetan]-3(4H)-one]",2.365
7,CC1(C)NC(=O)C(c2ccccc2)c2ccccc21 (stereo not drawn) [compound 138],7.955
8,CCC1(CC(=O)NCc2ccccc2)C(=O)NC(C)(C)c2ccc(Br)cc21 (stereo not drawn) [compound 139],30.805
9,CC1(C)NC(=O)C(CCF)(CCF)c2cc(Br)ccc21 [compound 140],0.199
10,CCC1(CC)C(=O)NC(C)(C)c2ccc(Cl)c(F)c21 [compound 141],<0.077
11,CC1(C)C(=O)NC2(COC2)c2ccc(C#N)nc21 [compound 142],2.377
12,"CCC1(CC)C(=O)NC2(COC2)c2ccc(COC(F)F)nc21 [compound 143, 2-[(difluoromethoxy)methyl]-8,8-diethyl-6H-spiro[1,6-naphthyridine-5,3′-oxetan]-7(8H)-one]",2.830
13,CCC1(CC(F)F)C(=O)NC2(COC2)c2ccc(OC)nc21 (stereo not drawn) [compound 145],0.581
14,CCC1(C)C(=O)NC2(COC2)c2ccc(OC(F)F)nc21 (stereo not drawn) [compound 146],0.283
15,COc1ccc2c(n1)C(C)(C)C(=O)NC21COC1 [compound 147],2.346
16,CC1(C)NC(=O)C(C)(C)c2nc(C#N)cnc21 [compound 153],1.590
17,"CC1(C)NC(=O)C2(CCN(S(C)(=O)=O)CC2)c2cc(Cl)ccc21 [compound 155, 6-chloro-1,1-dimethyl-1′-(methylsulfonyl)-1,2-dihydro-3H-spiro[isoquinoline-4,4′-piperidin]-3-one]",8.340
18,COC(=O)N1CCC2(CC1)C(=O)NC(C)(C)c1ccc(Cl)cc12 [compound 156],5.881
19,CC1(C)C(=O)NC2(COC2)c2ccc(F)cc21 [compound 157],2.566
20,CC1(C)NC(=O)C(C)(CCO)c2cc(Cl)cnc21 (stereo not drawn) [compound 159],11.374
21,CCC1(CC)C(=O)NC2(COC2)c2ncc(C#N)cc21 [compound 161],1.987
22,CCC1(CCO)C(=O)NC2(COC2)c2ccc(C#N)cc21 (stereo not drawn) [compound 165],1.202
23,CC1(C)C(=O)NC2(COC2)c2ccc(C(F)F)nc21 [compound 169],1.730

# From patent US11479561B2, “Tetrahydroisoquinoline derivatives” (Cytokinetics, Incorporated, priority 2016, dated 2022)
